The record followed here is publication PMC5866846 (Archives of Toxicology, 2017).

The test system of one data set is NAT1 gene expression. Kind of data set: NAT1 gene expression in upcyte hepatocytes (Fluidigm RT-PCR). Conditions: phenobarbital 2 mM, 72 h; 'up to' = strongest decrease. The class given is cell-based, human.
The subject of the next data set is SLCO1B1 gene expression. Kind of data set: SLCO1B1 gene expression in upcyte hepatocytes (Fluidigm RT-PCR). The data set is classed as cell-based, human. As to conditions: phenobarbital 2 mM, 72 h. From the text:
(§1) Total RNA was isolated from cells using the Direct-zol™ RNA MiniPrep kit (Zymo Research Corp., Irvine, California). cDNA was synthesized using TaqMan Reverse Transcription Reagents (Life technologies, Applera GmbH, Darmstadt, Germany) and the expression of 25 genes representative of phase I and phase II drug metabolism and transport was quantified by Fluidigm’s BioMark HD high-throughput quantitative chip platform (Fluidigm Corporation, San Francisco, USA). For relative gene expression analysis, the delta-delta-Ct (ΔΔCt) method was used: the Ct values of the target mRNA were first normalized to those of the endogenous control glyceraldehyde-3-phosphate dehydrogenase (GAPDH) followed by dividing values of experimental samples by their corresponding DMSO-treated controls to calculate the x-fold changes of mRNA expression.
(§2) In HLM and supersome™ incubations the formation rate is given as nmol µg^−1 min^−1 and fmol pmol^−1 min^−1, respectively, and was calculated as the mean ± SD. […] The intrinsic Clearance (Clint) was given as Vmax/Km ratio. […] In induction and inhibition experiments corresponding EC50 and IC50 values were calculated by nonlinear regression. […]
(§3) As control 0.05 % DMSO was used. The basal CYP activity and induction of CYP activity compared to the DMSO control were measured via HPLC-ESI-MS/MS.

A further data set relates to CYP2B6. Kind of data set: CYP2B6 activity in upcyte hepatocytes after treatment (probe substrate cocktail). As to conditions: phenobarbital 2 mM, 72 h, both cell lines. Here is the method: (§4) Cells were cultivated in hepatocyte culture medium at 37 °C and 5 °% CO2 in a humidified incubator. Before starting experiments, cells were cultivated in hepatocyte culture medium containing 0.5% (v/v) DMSO (Preculture medium) for 5 days (density of 0.8 × 10^4 cells/cm^2) and were subcultivated in high-performance medium containing 0.1% (v/v) DMSO (Metabolism conditioning medium) for 3–5 days (density of 1.6 × 10^5 cells/cm^2, confluence). The medium was replaced every 2–3 days.
(§5) In HLM and supersome™ incubations the formation rate is given as nmol µg^−1 min^−1 and fmol pmol^−1 min^−1, respectively, and was calculated as the mean ± SD. […] The intrinsic Clearance (Clint) was given as Vmax/Km ratio. […] Activity of CYP enzymes in induction assays is given as the fold-change (mean ± SD) compared to the corresponding DMSO-treated control. […] Gene expression patterns of treated cells are given as fold-change compared to the corresponding DMSO-treated control samples, as described above. […] In induction and inhibition experiments corresponding EC50 and IC50 values were calculated by nonlinear regression. In all experiments a level of probability (p) ≤ 0.05 for statistical testing was considered significant.
as §3

Data set [1] relates to CYP3A4. Conditions: hepatocytes.
Another data set relates to SULT1B1 gene expression. Kind of data set: SULT1B1 gene expression in upcyte hepatocytes (Fluidigm RT-PCR). The data set is classed as cell-based, human. Conditions: phenobarbital 2 mM, 72 h; 'up to' = strongest decrease.
The subject of a further data set is CYP2C8 gene expression. The experiment in a line: CYP2C8 gene expression in upcyte hepatocytes (Fluidigm RT-PCR). Conditions: phenobarbital 2 mM, 72 h; 'up to' = strongest decrease. The data set is classed as cell-based, human. From the text:
(§6) Differences between induced and control samples were compared using Welch’s t-test (GraphPad Prism, version 5.04), when the fold-change was considered biologically relevant (1.5-fold increase or decrease in fold-changes) and corrected for multiple testing according to Bonferroni. […] An unpaired t-test assuming unequal variances was used for testing of differences in the expression patterns, when the fold-change was considered biologically relevant (1.5-fold increase or decrease in fold-changes) and corrected using Bonferroni adjustments.
(§7) As control 0.05 % DMSO was used.

The subject of the next data set is UGT1A1 gene expression. The experiment in a line: UGT1A1 gene expression in upcyte hepatocytes (Fluidigm RT-PCR). The data set is classed as cell-based, human. As to conditions: phenobarbital 2 mM, 72 h, both strains.
Description: as §1, §2, §3

The test system of another data set is SLC22A7 gene expression. Kind of data set: SLC22A7 gene expression in upcyte hepatocytes (Fluidigm RT-PCR). The data set is classed as cell-based, human. Conditions: phenobarbital 2 mM, 72 h.
Description: as §1, §2, §3

A further data set deals with CYP3A4 gene expression. Kind of data set: CYP3A4 gene expression in upcyte hepatocytes (Fluidigm RT-PCR). As to conditions: human, hepatocytes.
Description: as §1, §5, §3

The test system of data set [2] is CYP3A4. The experiment in a line: CYP3A4 activity in upcyte hepatocytes after treatment (probe substrate cocktail). As to conditions: hepatocytes. As for the experimental part: as §4, §5, §3
A further data set concerns CYP2C19 gene expression. Kind of data set: CYP2C19 gene expression in upcyte hepatocytes (Fluidigm RT-PCR). The class given is cell-based, human. As to conditions: phenobarbital 2 mM, 72 h.
Description: as §6, §7

The subject of another data set is CYP2E1 gene expression. Kind of data set: CYP2E1 gene expression in upcyte hepatocytes (Fluidigm RT-PCR). The class given is cell-based, human. Conditions: phenobarbital 2 mM, 72 h; 'up to' = strongest decrease.
Description: as §6, §7

Another data set has as its system GSTA2 gene expression. Kind of data set: GSTA2 gene expression in upcyte hepatocytes (Fluidigm RT-PCR). The class given is cell-based, human. Conditions: rifampicin 30 µM, 72 h. An excerpt:
[…]. […] […].
[…]. As control 0.05 % DMSO was used.

The next data set has as its system ABCB1 gene expression. The experiment in a line: ABCB1 gene expression in upcyte hepatocytes (Fluidigm RT-PCR). The data set is classed as cell-based, human. As to conditions: rifampicin 30 µM, 72 h.
Description: as §1, §2, §3

For `CCC1(c2ccccc2)C(=O)NC(=O)NC1=O` [PB, phenobarbital], the “NAT1 gene expression, down regulated to x-fold of control” value in the data set with NAT1 gene expression is “up to 0.5 fold”. Moreover, the “SLCO1B1 gene expression, induction” value with SLCO1B1 gene expression is reported as “up to 2.9 fold”. Also, in the data set with CYP2B6, the “induction of CYP2B6 activity” value was “induced”. In the data set on CYP3A4 [1], the “protein expression of CYP3A4 (Western blot)” value is “induced”. Moreover, in the data set on SULT1B1 gene expression, the “SULT1B1 gene expression, down regulated to x-fold of control” value was “up to 0.5 fold”. In the data set with CYP2C8 gene expression, the “CYP2C8 gene expression, decreased to x-fold of control” value is “up to 0.3 fold”. Besides, the “UGT1A1 gene expression, induction” value with UGT1A1 gene expression is listed as 1.8 fold. In addition, in the data set on SLC22A7 gene expression, the SLC22A7 gene expression result was “down regulated”. Besides, the “CYP3A4 gene expression, induction” value in the data set on CYP3A4 gene expression is recorded as ≤ 9 fold. In addition, the “induction of CYP3A4 activity” value in the data set with CYP3A4 [2] is reported as “induced”. In addition, the “CYP2C19 gene expression, induction” value with CYP2C19 gene expression is given as “up to 1.5 fold”. For the same molecule, the “CYP2E1 gene expression, decreased to x-fold of control” value in the data set with CYP2E1 gene expression is ≤ 0.2 fold.

`CO[C@H]1/C=C/O[C@@]2(C)Oc3c(C)c(O)c4c(O)c(c(/C=N/N5CCN(C)CC5)c(O)c4c3C2=O)NC(=O)/C(C)=C\C=C\[C@H](C)[C@H](O)[C@@H](C)[C@@H](O)[C@@H](C)[C@H](OC(C)=O)[C@@H]1C` [Rifa, rifampicin]: the “GSTA2 gene expression, induction” value in the data set with GSTA2 gene expression was 2.6 fold. For the same molecule, in the data set with ABCB1 gene expression, the “ABCB1 gene expression, induction” value was found to be 1.7 fold.
